Results on three molecules are retold here after US11708335B2, “Pyrimidine compounds useful as tyrosine kinase inhibitors” (STERNGREENE, INC., priority 2017, dated 2023).

Structures are written as SMILES.

Test [1] concerns NCI-H1975 cells. Kind of test: In vitro proliferation (MTT) of NCI-H1975 cells. It is filed as cell-based. As to conditions: FIG. 4; for IC50: Homo sapiens, NCI-H1975 cells, EGFR(T790M) mutant, read-out: IC50, inhibition of NCI-H1975 cell proliferation; for activity against NCI-H1975 cells (proliferation): NCI-H1975 cells express the EGFR(T790M) mutant. The protocol:
(§1) Example 1: MTT Assay Protocol
(§2) An MTT assay can be performed to screen compounds for suitability as an EGFR inhibitor. A sample MTT assay protocol is as follows:
(§3) SKBR3, BT474, MDA-MB-231, MDA-MB-453, MDA-MB-468, Ml: 5000 cells/well, 5% FBS; NE91, NR6 and NR6 derived cell lines: 2500 cells/well, 5% FBS; H1975: 5000 cells/well, 1% FBS).
(§4) Add 50 μl medium with different concentrations of inhibitors. Incubate at 37° C., 5% CO2 for 72 hrs.
(§5) Replace the medium with 100 μl of fresh medium. Leave at 37° C., 5% CO2 for 4 hrs.
(§6) Add 25 μl of MIT (5 mg/ml stock solution, final concentration 1 mg/ml) to each well. Incubate the microtrays for 2 hours at 37° C.
(§7) Add 100 μl extraction buffer (50% DMF/20% SDS at pH 4.7) to each well.
(§8) Incubate overnight at 37° C. and OD measurements at 570 nm.
(§9) A MTT assay protocol is also described in Hansen et al., “Re-examination and further development of a precise and rapid dye method for measuring cell growth/cell kill,” J. Immunol. Methods 119:203-210 (1989).
(§10) Essays conducted as outlined in Examples 1 and 2.

The target in test [2] is EGFR(d746-750/T790M/C797 S) (Homo sapiens, UniProt P00533, C797S/DEL746-750/T790M). The test can be described thus: RBC HotSpot kinase assay, EGFR mutants, 10 μM ATP. The class given is biochemical. As to conditions: FIG. 3. The protocol: (§11) Example 2: RBC HotSpot Kinase Assay Protocol
(§12) An RBC HotSpot Kinase Assay can be performed to determine kinase activity data. A sample RBC HotSpot KinaseAssay protocol is as follows:
(§13) Reagent: Base Reaction buffer; 20 mM Hepes (pH 7.5), 10 mM MgCl2, 1 mM EGTA, 0.02% Brij35, 0.02 mg/ml BSA, 0.1 mM Na3VO4, 2 mM DTT, 1% DMSO
(§14) Add required cofactors individually to each kinase reaction.
(§15) Compound handling: Dissolve testing compounds in 100% DMSO to specific concentration. Serial dilution can be conducted using Integra Viaflo Assist in DMSO.
(§16) Prepare substrate in freshly prepared Reaction Buffer.
(§17) Deliver any required cofactors to the substrate solution above.
(§18) Deliver kinase into the substrate solution and gently mix.
(§19) Deliver compounds in 100% DMSO into the kinase reaction mixture by Acoustic technology (Echo550; nanoliter range) and incubate for 20 min at room temp.
(§20) Deliver ^33P-ATP (Specific activity 10 μCi/μl) into the reaction mixture to initiate the reaction.
(§21) Incubate for 2 hours at room temperature.
(§22) Detect radioactivity by filter-binding method.
(§23) Kinase activity data can be expressed as the percent remaining kinase activity in test samples compared to vehicle (dimethyl sulfoxide) reactions. IC50 values and curve fits can be obtained using Prism (GraphPad Software).
as §10

Test [3] concerns the target EGFR(L858R/T790M/C797S) (Homo sapiens, UniProt P00533, C797S/L858R/T790M). The test can be described thus: RBC HotSpot kinase assay, EGFR mutants, 10 μM ATP. The class given is biochemical. As to conditions: FIG. 3. As for the experimental part:
as §11, §12, §13, §14, §15, §16, §17, §18, §19, §20, §21, §22, §23, §10

For test [4], the target named is EGFR(C797S) (Homo sapiens, UniProt P00533, C797S). Kind of test: RBC HotSpot kinase assay, EGFR mutants, 10 μM ATP. The class given is biochemical. As to conditions: FIG. 3. The protocol:
as §11, §12, §13, §14, §15, §16, §17, §18, §19, §20, §21, §22, §23, §10

In test [5] the test system is A431 cells. The test can be described thus: In vitro proliferation (MTT) of A431 cells. The class given is cell-based. As to conditions: A431 cells express the wild type EGFR; FIG. 4. The protocol: as §1, §2, §3, §4, §5, §6, §7, §8, §9, §10

Take `C=CC(=O)Nc1cc(Nc2nccc(-c3cn(C)c4ccccc34)n2)c(OC)cc1N(C)CCN(C)C` [AZD-9291, osimertinib, reference compound]: the IC50 in test [1] was found to be […].

For the molecule `CCOc1cc2ncnc(Nc3ccc(F)c(Cl)c3)c2cc1NC(=O)/C=C/CN(C)CCCO` [SGI-078], in test [2], the “activity on EGFR(d746-750/T790M/C797 S)” value is listed as “good activity”. Further, the “activity on EGFR(L858R/T790M/C797S)” value in test [3] is recorded as “good activity”. Moreover, in test [4], the “activity against EGFR(C797S)” value is listed as “very strong activity”. In test [5], the “activity against A431 cells (proliferation)” value is recorded as “weak activity”. Further, the “activity against NCI-H1975 cells (proliferation)” value (from here on “activity against NCI-H1975 cells”) in test [1] is given as “better activity”.

On to `CCOc1cc2ncnc(Nc3ccc(F)c(Cl)c3)c2cc1NC(=O)/C=C/CN(C)CCCOC` [SGI-105], for which the “activity on EGFR(d746-750/T790M/C797 S)” value in test [2] is “good activity”. Also, in test [3], the “activity on EGFR(L858R/T790M/C797S)” value is on record as “good activity”. Further, the “activity against EGFR(C797S)” value in test [4] was “very strong activity”. Besides, in test [5], the “activity against A431 cells (proliferation)” value is “weak activity”. In test [1], the IC50 came to 181 nM and the “activity against NCI-H1975 cells” value is “better activity”. Besides, the “activity against NCI-H1975 cells” value in test [1] (listed as SG1-105) is reported as “more active than SGI-078”.
